Laboratory results taken from ChEMBL document CHEMBL1201861, “Genomics of Drug Sensitity in Cancer screening data, Wellcome Trust Sanger Institute”.

Columns and labels:
Assay in all cases: cells
[1] = system: MC116; format: functional, cell-based, Homo sapiens;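 also: growth inhibition of MC116 cells, read out with a cell viability assay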
Description: SANGER: Inhibition of human MC116 cell growth in a cell viability assay.

[2] = system: NH-12; format: functional, cell-based, Homo sapiens;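 also: growth inhibition of NH-12 cells, read out with a cell viability assay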
Description: SANGER: Inhibition of human NH-12 cell growth in a cell viability assay.

[3] = system: JAR; format: functional, cell-based, Homo sapiens;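 also: growth inhibition of human JAR cells determined with a cell viability assay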
Description: SANGER: Inhibition of human JAR cell growth in a cell viability assay.

[4] = system: MLMA; format: functional, cell-based, Homo sapiens;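 also: growth inhibition of MLMA cells (human), determined through a cell viability readout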
Description: SANGER: Inhibition of human MLMA cell growth in a cell viability assay.

[5] = system: MFM-223; format: functional, cell-based, Homo sapiens
Description: SANGER: Inhibition of human MFM-223 cell growth in a cell viability assay.

[6] = system: KM12; format: functional, cell-based, Homo sapiens;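 also: KM12 cell growth inhibition, read out with a cell viability assay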
Description: SANGER: Inhibition of human KM12 cell growth in a cell viability assay.

[7] = system: COLO-668; format: functional, cell-based, Homo sapiens
Description: SANGER: Inhibition of human COLO-668 cell growth in a cell viability assay.

[8] = system: EW-11; format: functional, cell-based, Homo sapiens;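 also: growth inhibition of human EW-11 cells, measured with a cell viability assay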
Description: SANGER: Inhibition of human EW-11 cell growth in a cell viability assay.

[9] = system: KURAMOCHI; format: functional, cell-based, Homo sapiens;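 also: growth inhibition of KURAMOCHI cells, read out with a cell viability assay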
Description: SANGER: Inhibition of human KURAMOCHI cell growth in a cell viability assay.

[10] = system: KMOE-2; format: functional, cell-based, Homo sapiens;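 also: growth inhibition of human KMOE-2 cells, read out with a cell viability assay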
Description: SANGER: Inhibition of human KMOE-2 cell growth in a cell viability assay.

[11] = system: CTB-1; format: functional, cell-based, Homo sapiens
Description: SANGER: Inhibition of human CTB-1 cell growth in a cell viability assay.

[12] = system: CW-2; format: functional, cell-based, Homo sapiens;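 also: growth inhibition of CW-2 cells, read out by a cell viability assay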
Description: SANGER: Inhibition of human CW-2 cell growth in a cell viability assay.

[13] = system: SW982; format: functional, cell-based, Homo sapiens;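 also: growth inhibition of SW982 cells, read out with a cell viability assay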
Description: SANGER: Inhibition of human SW982 cell growth in a cell viability assay.

[14] = system: TGW; format: functional, cell-based, Homo sapiens;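 also: growth inhibition of human TGW cells, read out with a cell viability assay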
Description: SANGER: Inhibition of human TGW cell growth in a cell viability assay.

[15] = system: U-87 MG; format: functional, cell-based, Homo sapiens, U-87MG ATCC;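 also: growth inhibition of the cells measured with a viability assay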
Description: SANGER: Inhibition of human U-87-MG cell growth in a cell viability assay.

[16] = system: HL-60; format: functional, cell-based, Homo sapiens;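 also: growth inhibition of human HL-60 cells, read out with a cell viability assay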
Description: SANGER: Inhibition of human HL-60 cell growth in a cell viability assay.

[17] = system: K562; format: functional, cell-based, Homo sapiens
Description: SANGER: Inhibition of human K-562 cell growth in a cell viability assay.

[18] = system: OS-RC-2; format: functional, cell-based, Homo sapiens;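 also: growth inhibition of human OS-RC-2 cells, measured by a cell viability assay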
Description: SANGER: Inhibition of human OS-RC-2 cell growth in a cell viability assay.

[19] = system: ES3; format: functional, cell-based, Homo sapiens;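 also: growth inhibition of ES3 cells, read out with a cell viability assay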
Description: SANGER: Inhibition of human ES3 cell growth in a cell viability assay.

[20] = system: QIMR-WIL; format: functional, cell-based, Homo sapiens;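 also: growth inhibition of QIMR-WIL cells, read out with a cell viability assay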
Description: SANGER: Inhibition of human QIMR-WIL cell growth in a cell viability assay.

[21] = system: DMS-79; format: functional, cell-based, Homo sapiens;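 also: growth inhibition measured with a cell viability assay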
Description: SANGER: Inhibition of human DMS-79 cell growth in a cell viability assay.

[22] = system: OCUB-M; format: functional, cell-based, Homo sapiens;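 also: growth inhibition of the cancer cell line, read out through a cell viability assay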
Description: SANGER: Inhibition of human OCUB-M cell growth in a cell viability assay.

[23] = system: COR-L88; format: functional, cell-based, Homo sapiens;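 also: growth inhibition of COR-L88 cells, read out with a cell viability assay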
Description: SANGER: Inhibition of human COR-L88 cell growth in a cell viability assay.

[24] = system: GAK; format: functional, cell-based, Homo sapiens;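 also: cell growth inhibition read out by a cell viability assay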
Description: SANGER: Inhibition of human GAK cell growth in a cell viability assay.

[25] = system: A388; format: functional, cell-based, Homo sapiens;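 also: growth inhibition of human A388 cells, read out with a cell viability assay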
Description: SANGER: Inhibition of human A388 cell growth in a cell viability assay.

[26] = system: LC-2-ad; format: functional, cell-based, Homo sapiens;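 also: growth inhibition of human LC-2-ad cells, read out with a cell viability assay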
Description: SANGER: Inhibition of human LC-2-ad cell growth in a cell viability assay.

[27] = system: EW-13; format: functional, cell-based, Homo sapiens;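 also: growth inhibition of EW-13 cells, read out with a cell viability assay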
Description: SANGER: Inhibition of human EW-13 cell growth in a cell viability assay.

[28] = system: LAMA-84; format: functional, cell-based, Homo sapiens;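 also: growth inhibition of LAMA-84 cells, read out with a cell viability assay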
Description: SANGER: Inhibition of human LAMA-84 cell growth in a cell viability assay.

[29] = system: LS-123; format: functional, cell-based, Homo sapiens
Description: SANGER: Inhibition of human LS-123 cell growth in a cell viability assay.

[30] = system: TGBC1TKB; format: functional, cell-based, Homo sapiens;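 also: growth inhibition of TGBC1TKB cells, read out by a cell viability assay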
Description: SANGER: Inhibition of human TGBC1TKB cell growth in a cell viability assay.

[31] = system: SBC-1; format: functional, cell-based, Homo sapiens;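 also: cell viability assay measuring growth inhibition of the SBC-1 cell line, IC50 being the concentration that halves growth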
Description: SANGER: Inhibition of human SBC-1 cell growth in a cell viability assay.

[32] = system: LS-513; format: functional, cell-based, Homo sapiens
Description: SANGER: Inhibition of human LS-513 cell growth in a cell viability assay.

[33] = system: SK-MEL-2; format: functional, cell-based, Homo sapiens;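 also: growth inhibition of human SK-MEL-2 cells measured with a cell viability assay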
Description: SANGER: Inhibition of human SK-MEL-2 cell growth in a cell viability assay.

[34] = system: 8-MG-BA; format: functional, cell-based, Homo sapiens;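 also: growth inhibition of 8-MG-BA cells, read out with a cell viability assay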
Description: SANGER: Inhibition of human 8-MG-BA cell growth in a cell viability assay.

[35] = system: CGTH-W-1; format: functional, cell-based, Homo sapiens;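 also: growth inhibition of human CGTH-W-1 cells measured by cell viability assay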
Description: SANGER: Inhibition of human CGTH-W-1 cell growth in a cell viability assay.

[36] = system: P30-OHK; format: functional, cell-based, Homo sapiens;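 also: growth inhibition of the P30-OHK cell line, read out with a cell viability assay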
Description: SANGER: Inhibition of human P30-OHK cell growth in a cell viability assay.

[37] = system: KU812 cell line; format: functional, cell-based, Homo sapiens;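 also: growth inhibition of KU812 cells, read out with a cell viability assay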
Description: SANGER: Inhibition of human KU812 cell growth in a cell viability assay.

[38] = system: MS-1; format: functional, cell-based, Homo sapiens;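 also: growth inhibition of MS-1 cells, read out by cell viability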
Description: SANGER: Inhibition of human MS-1 cell growth in a cell viability assay.

[39] = system: SNU-C2B; format: functional, cell-based, Homo sapiens;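 also: cell viability readout used to measure compound-driven suppression of SNU-C2B cell proliferation, IC50 marking half-maximal growth inhibition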
Description: SANGER: Inhibition of human SNU-C2B cell growth in a cell viability assay.

[40] = system: DSH1; format: functional, cell-based, Homo sapiens;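 also: growth inhibition of human DSH1 cells, measured with a cell viability readout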
Description: SANGER: Inhibition of human DSH1 cell growth in a cell viability assay.

[41] = system: SK-UT-1; format: functional, cell-based, Homo sapiens;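 also: growth inhibition of SK-UT-1 cells, measured by a cell viability assay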
Description: SANGER: Inhibition of human SK-UT-1 cell growth in a cell viability assay.

[42] = system: HD-MY-Z; format: functional, cell-based, Homo sapiens;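 also: growth inhibition of HD-MY-Z cells, read out with a cell viability assay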
Description: SANGER: Inhibition of human HD-MY-Z cell growth in a cell viability assay.

[43] = system: HAL-01; format: functional, cell-based, Homo sapiens;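 also: growth inhibition of human HAL-01 cells, read out with a cell viability assay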
Description: SANGER: Inhibition of human HAL-01 cell growth in a cell viability assay.

[44] = system: HCC 2998; format: functional, cell-based, Homo sapiens;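 also: growth inhibition of human HCC2998 cells, measured with a cell viability read-out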
Description: SANGER: Inhibition of human HCC2998 cell growth in a cell viability assay.

[45] = system: HH; format: functional, cell-based, Homo sapiens
Description: SANGER: Inhibition of human HH cell growth in a cell viability assay.

[46] = system: NCI-H1092; format: functional, cell-based, Homo sapiens;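 also: cell growth inhibition measured with a cell viability assay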
Description: SANGER: Inhibition of human NCI-H1092 cell growth in a cell viability assay.

[47] = system: NCI-H69; format: functional, cell-based, Homo sapiens;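 also: growth inhibition of the cell line, read out with a cell viability assay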
Description: SANGER: Inhibition of human NCI-H69 cell growth in a cell viability assay.

[48] = system: ONS-76; format: functional, cell-based, Homo sapiens;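 also: growth inhibition of human ONS-76 cells, read out with a cell viability assay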
Description: SANGER: Inhibition of human ONS-76 cell growth in a cell viability assay.

O=C(O)c1ccc(-c2c[nH]c3ncc(-c4ccccc4)cc23)cc1C1CCCC1 [GSK-650394]
IC50 ([1]; Homo sapiens, MC116): > 16 µM
IC50 ([2]; Homo sapiens, NH-12): 12.3 µM
IC50 ([3]; Homo sapiens, JAR): > 16 µM
IC50 ([4]; Homo sapiens, MLMA): > 16 µM
IC50 ([5]; Homo sapiens, MFM-223): > 16 µM
IC50 ([6]; Homo sapiens, KM12): 0.851 µM
IC50 ([7]; Homo sapiens, COLO-668): > 16000 nM
IC50 ([8]; Homo sapiens, EW-11): > 16 µM
IC50 ([9]; Homo sapiens, KURAMOCHI): > 16 µM
IC50 ([10]; Homo sapiens, KMOE-2): > 16 µM
IC50 ([11]; Homo sapiens, CTB-1): > 16 µM
IC50 ([12]; Homo sapiens, CW-2): > 16 µM
IC50 ([13]; Homo sapiens, SW982): 13.8 µM
IC50 ([14]; Homo sapiens, TGW): > 16 µM
IC50 ([15]; Homo sapiens, U-87 MG): > 16 µM
IC50 ([16]; Homo sapiens, HL-60): > 16 µM
IC50 ([17]; Homo sapiens, K562): > 16 µM
IC50 ([18]; Homo sapiens, OS-RC-2): > 16 µM
IC50 ([19]; Homo sapiens, ES3): > 16 µM
IC50 ([20]; Homo sapiens, QIMR-WIL): 8.8 µM
IC50 ([21]; Homo sapiens, DMS-79): > 16 µM
IC50 ([22]; Homo sapiens, OCUB-M): 2.79 µM
IC50 ([23]; Homo sapiens, COR-L88): > 16 µM
IC50 ([24]; Homo sapiens, GAK): > 16 µM
IC50 ([25]; Homo sapiens, A388): 7.6 µM
IC50 ([26]; Homo sapiens, LC-2-ad): > 16 µM
IC50 ([27]; Homo sapiens, EW-13): 3.02 µM
IC50 ([28]; Homo sapiens, LAMA-84): 10.2 µM
IC50 ([29]; Homo sapiens, LS-123): > 16 µM
IC50 ([30]; Homo sapiens, TGBC1TKB): > 16 µM
IC50 ([31]; Homo sapiens, SBC-1): > 16 µM
IC50 ([32]; Homo sapiens, LS-513): > 16 µM
IC50 ([33]; Homo sapiens, SK-MEL-2): > 16 µM
IC50 ([34]; Homo sapiens, 8-MG-BA): 15.6 µM
IC50 ([35]; Homo sapiens, CGTH-W-1): 2.1 µM
IC50 ([36]; Homo sapiens, P30-OHK): 6.21 µM
IC50 ([37]; Homo sapiens, KU812): 2.19 µM
IC50 ([38]; Homo sapiens, MS-1): > 16 µM
IC50 ([39]; Homo sapiens, SNU-C2B): > 16 µM
IC50 ([40]; Homo sapiens, DSH1): > 16 µM
IC50 ([41]; Homo sapiens, SK-UT-1): 11.8 µM
IC50 ([42]; Homo sapiens, HD-MY-Z): > 16 µM
IC50 ([43]; Homo sapiens, HAL-01): > 16 µM
IC50 ([44]; Homo sapiens, HCC 2998): > 16 µM
IC50 ([45]; Homo sapiens, HH): > 16 µM
IC50 ([46]; Homo sapiens, NCI-H1092): > 16 µM
IC50 ([47]; Homo sapiens, NCI-H69): 7.67 µM
IC50 ([48]; Homo sapiens, ONS-76): 4.14 µM

BLEOMYCIN
IC50 ([1]; mc116): 2.11 µM
IC50 ([2]; nh-12): 2.21 µM
IC50 ([3]; jar): 206 µM
IC50 ([4]; mlma): 0.87 µM
IC50 ([5]; mfm-223): 11000 µM
IC50 ([6]; km12): 9.19 µM
IC50 ([7]; colo-668): 0.0218 nM
IC50 ([8]; ew-11): 6.41 µM
IC50 ([9]; kuramochi): 2.04 µM
IC50 ([10]; kmoe-2): 544 µM
IC50 ([11]; ctb-1): 0.0269 µM
IC50 ([12]; cw-2): 564 µM
IC50 ([13]; sw982): 0.417 µM
IC50 ([14]; tgw): 65.8 µM
IC50 ([15]; u-87mg atcc): 11.1 µM
IC50 ([16]; hl-60): 35.3 µM
IC50 ([17]; k562): 126 µM
IC50 ([18]; os-rc-2): 3.02 µM
IC50 ([19]; es3): 1.61 µM
IC50 ([20]; qimr-wil): 0.637 µM
IC50 ([21]; dms-79): 325 µM
IC50 ([22]; ocub-m): 1.81 µM
IC50 ([23]; cor-l88): 73.4 µM
IC50 ([24]; gak): 126 µM
IC50 ([25]; a388): 0.877 µM
IC50 ([26]; lc-2-ad): 0.0804 µM
IC50 ([27]; ew-13): 0.292 µM
IC50 ([28]; lama-84): 4.29 µM
IC50 ([29]; ls-123): 23.4 µM
IC50 ([30]; tgbc1tkb): 74.1 µM
IC50 ([31]; sbc-1): 370 µM
IC50 ([32]; ls-513): 29 µM
IC50 ([33]; sk-mel-2): 8.49 µM
IC50 ([34]; 8-mg-ba): 1.48 µM
IC50 ([35]; cgth-w-1): 4.3 µM
IC50 ([36]; p30-ohk): 7.1 µM
IC50 ([37]; ku812): 68 µM
IC50 ([38]; ms-1): 156 µM
IC50 ([39]; snu-c2b): 2.32 µM
IC50 ([40]; dsh1): 155 µM
IC50 ([41]; sk-ut-1): 0.00629 µM
IC50 ([42]; hd-my-z): 0.56 µM
IC50 ([43]; hal-01): 0.000453 µM
IC50 ([44]; hcc 2998): 0.00659 µM
IC50 ([45]; hh): 2.29 µM
IC50 ([46]; nci-h1092): 160 µM
IC50 ([47]; nci-h69): 104 µM
IC50 ([48]; ons-76): 0.854 µM
